For orientation: IC50 means the midpoint of a concentration-inhibition curve. Read a low IC50 as greater potency in that assay.

This note sets out measurements from ChEMBL document CHEMBL1147941, “Novel morpholin-3-one derivatives induced apoptosis and elevated the level of P53 and Fas in A549 lung cancer cells” (Bioorg Med Chem, 2007).

Values after ≈ are worked out from the molar mass of the structure shown. Active and inactive are the calls of the source. The rule behind the calls is not given here.

Assay [1] deals with A549. The assay is described as follows: Increase in Fas protein level in A549 cells at 40 ug/ml after 48 hrs relative to control. Format: functional, Homo sapiens.
Assay [2] relates to A549. The assay is described as follows: Cell cycle arrest in A549 cells assessed as accumulation at G1 phase at 40 ug/ml after 48 hrs. Format: functional, Homo sapiens.
In assay [3] the test system is A549. The assay is described as follows: Antiproliferative activity against human A549 cells after 48 hrs by MTT assay. Format: functional, cell-based. Particulars: A549, 48 h. For orientation: Formazan colour is commonly taken as a measure of viable cells.
For assay [4], the system named is A549. The assay is described as follows: Increase in P53 protein level in A549 cells at 40 ug/ml after 48 hrs relative to control. Format: functional, Homo sapiens.
Assay [5] relates to A549. The assay is described as follows: Induction of apoptosis in A549 cells assessed as DNA fragmentation at 40 ug/ml after 48 hrs by acridine orange assay. In kind it is functional, cell-based. To be noted: Homo sapiens.
In assay [6] the test system is A549. In words: Cell cycle arrest in A549 cells assessed as accumulation at G2/M phase at 40 ug/ml after 48 hrs. In kind it is functional, Homo sapiens.
For assay [7], the system named is A549. The assay is described as follows: Effect on morphology in A549 cells assessed as formation of apoptotic bodies at 40 ug/ml after 48 hrs. Format: functional, cell-based. Particulars: Homo sapiens.
Assay [8] relates to A549. In words: Cell cycle arrest in A549 cells assessed as accumulation at S phase at 40 ug/ml after 48 hrs. In kind it is functional, Homo sapiens.

For the molecule `O=C1COC(COc2ccc([N+](=O)[O-])cc2)CN1c1ccccc1` (stereo not given), the Activity in the assay on A549 [1] is listed as 40.97%; with A549 [2] it was 73.3%; in the assay on A549 [4], 33.73%; in the assay on A549 [6], 18.64%. This molecule gave a concentration for half-maximal inhibition (IC50) with A549 [3] of 16.6 µg/mL (≈ 50.6 µM). Also, the outcome in the assay on A549 [5] and in the assay with A549 [7] was Active.
Take `COc1ccc(N2CC(COc3ccc(Cl)cc3)OCC2=O)cc1` (stereo not given): the Activity with A549 [8] was found to be 10.99%; in the assay on A549 [1], 23.45%; in the assay on A549 [2] it was 79.44%; with A549 [4] it was 22.41%. Also, the midpoint of inhibition in the assay on A549 [3], the IC50, lay at 22.9 µg/mL (≈ 65.9 µM). In addition, the outcome with A549 [5] was Active.
`O=C1COC(COc2ccc([N+](=O)[O-])cc2)CN1c1ccc(Cl)cc1` (stereo not given): the Activity with A549 [8] is recorded as 14.82%; with A549 [1], 21.53%; with A549 [2], 63.25%; in the assay with A549 [4], 23.98%; in the assay on A549 [6], 21.93%. Moreover, half-maximal inhibition with A549 [3] (IC50) was put at 38 µg/mL (≈ 105 µM). In addition, the outcome in the assay with A549 [5] was Active.
